According to ChEMBL document CHEMBL5532661, “Discovery of a Novel Glucagon-like Peptide-1 (GLP-1) Analogue from Bullfrog and Investigation of Its Potential for Designing GLP-1-Based Multiagonists” (J Med Chem, 2024):
Calls of active or inactive are those of the source. The calls are words filed in the database; no cut-off is given here. Numbered stars: 1 amine (or outer) side, 2 acyl side, 3 side chain; on linkers, the order of the positions; unused ones are H or OH. Square brackets hold non-standard residues; d marks the D form. Side chains are listed from the residue outwards. Peptide text beside a SMILES is read from it. * marks the point of attachment. C20 diacid = O=C(O)CCCCCCCCCCCCCCCCCCC(=O)*; C18 diacid = O=C(O)CCCCCCCCCCCCCCCCC(=O)*; γGlu = O=C(O)[C@H](CCC(=O)[*:2])N[*:1]; Palmitoyl = CCCCCCCCCCCCCCCC(=O)*; AEEA = NCCOCCOCC(=O)O; Aib = CC(C)(N)C(=O)O

How the values were obtained:
Mus musculus [1] = assay: Antihyperglycemic effect in non-fasted DIO mouse assessed as decrease in blood glucose at 30 nmol/kg, sc measured upto 48 hrs; format: functional, organism-based
[2] = biological target: T1, Glucagon-like peptide 1 receptor (Homo sapiens, UniProt P43220); assay: Agonist activity at human GLP-1 receptor expressed in HEK293 cells assessed as cAMP level measured after 60 mins by HTRF based assay; format: functional, cell-based
T1 sequence (P43220 whole entry): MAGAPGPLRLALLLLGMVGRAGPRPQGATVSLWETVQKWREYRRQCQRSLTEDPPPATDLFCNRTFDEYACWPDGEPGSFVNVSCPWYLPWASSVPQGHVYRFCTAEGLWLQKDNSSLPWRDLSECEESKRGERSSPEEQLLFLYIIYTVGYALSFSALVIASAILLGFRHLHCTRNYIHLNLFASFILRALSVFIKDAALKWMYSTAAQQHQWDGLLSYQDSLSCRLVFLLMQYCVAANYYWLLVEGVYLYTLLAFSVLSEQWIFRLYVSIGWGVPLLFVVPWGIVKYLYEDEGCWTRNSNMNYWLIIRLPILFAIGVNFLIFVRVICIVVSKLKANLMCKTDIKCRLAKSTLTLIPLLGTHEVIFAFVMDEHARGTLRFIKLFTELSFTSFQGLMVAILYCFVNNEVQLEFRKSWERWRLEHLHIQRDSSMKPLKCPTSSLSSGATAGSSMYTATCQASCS

Mus musculus [3] = assay: Antihyperglycemic effect in DIO mouse assessed as antihyperglycemic duration by measuring blood glucose at 30 nmol/kg, sc administered twice daily measured by hypoglycemic duration assay; format: functional, organism-based
Mus musculus [4] = assay: Anorexigenic effect in ICR mouse assessed as decrease in food intake at 30 nmol/kg, sc measured upto 72 hrs by acute food intake study; format: functional, organism-based
Mus musculus [5] = assay: Reduction in serum ALT in DIO mouse at 30 nmol/kg, sc treated every 2 and half day once measured after 21 days; format: functional, organism-based; conditions: time 21.0 day
Mus musculus [6] = assay: Reduction in body weight in DIO mouse at 30 nmol/kg, sc treated every 2 and half day once measured after 21 days; format: functional; design: scale not given: the % may be the effect or the level left; conditions: time 21.0 day
Mus musculus [7] = assay: Reduction in serum AST in DIO mouse at 30 nmol/kg, sc treated every 2 and half day once measured after 21 days; format: functional, organism-based; conditions: time 21.0 day
Mus musculus [8] = assay: Hypoglycemic effect in ICR mouse treated with 3 g/kg glucose assessed as reduction in blood glucose level at 100 nmol/kg, sc measured upto 120 mins by acute glucose lowering test; format: functional, organism-based
Mus musculus [9] = assay: Hypoglycemic effect in ICR mouse treated with 3 g/kg glucose assessed as reduction in blood glucose level at 30 nmol/kg, sc measured upto 120 mins pretreated with GLP-1R antagonist by OGTT; format: functional, organism-based
Glucagon receptor [10] = biological target: T2, Glucagon receptor (Homo sapiens, UniProt P47871); assay: Agonist activity at human GCGR expressed in HEK293 cells assessed as cAMP level measured after 60 mins by HTRF based assay; format: functional, cell-based
T2 sequence (P47871 whole entry): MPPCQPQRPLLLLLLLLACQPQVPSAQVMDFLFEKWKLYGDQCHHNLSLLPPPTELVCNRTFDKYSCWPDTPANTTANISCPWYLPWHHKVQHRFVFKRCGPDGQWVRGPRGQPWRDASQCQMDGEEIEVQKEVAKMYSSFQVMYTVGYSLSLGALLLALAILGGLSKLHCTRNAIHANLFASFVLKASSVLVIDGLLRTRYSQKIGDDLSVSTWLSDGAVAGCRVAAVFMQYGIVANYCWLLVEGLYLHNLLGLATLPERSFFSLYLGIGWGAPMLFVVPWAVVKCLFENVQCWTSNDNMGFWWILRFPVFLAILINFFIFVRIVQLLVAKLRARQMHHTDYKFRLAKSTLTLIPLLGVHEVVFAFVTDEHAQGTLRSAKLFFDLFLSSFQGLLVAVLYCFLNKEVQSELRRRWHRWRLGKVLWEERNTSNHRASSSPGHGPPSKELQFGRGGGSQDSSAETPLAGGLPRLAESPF

[11] = biological target: T1, Glucagon-like peptide 1 receptor; assay: Agonist activity at human GLP-1 receptor expressed in HEK293 cells assessed as cAMP level by measuring relative percent (GLP-1 EC50/compound EC50) measured after 60 mins by HTRF based assay relative to GLP-1; format: functional, cell-based; conditions: filed as agonist
[12] = biological target: T3, Gastric inhibitory polypeptide receptor (Homo sapiens, UniProt P48546); assay: Agonist activity at human GIPR receptor expressed in HEK293 cells assessed as cAMP level measured after 60 mins by HTRF based assay; format: functional, cell-based
T3 sequence (P48546 whole entry): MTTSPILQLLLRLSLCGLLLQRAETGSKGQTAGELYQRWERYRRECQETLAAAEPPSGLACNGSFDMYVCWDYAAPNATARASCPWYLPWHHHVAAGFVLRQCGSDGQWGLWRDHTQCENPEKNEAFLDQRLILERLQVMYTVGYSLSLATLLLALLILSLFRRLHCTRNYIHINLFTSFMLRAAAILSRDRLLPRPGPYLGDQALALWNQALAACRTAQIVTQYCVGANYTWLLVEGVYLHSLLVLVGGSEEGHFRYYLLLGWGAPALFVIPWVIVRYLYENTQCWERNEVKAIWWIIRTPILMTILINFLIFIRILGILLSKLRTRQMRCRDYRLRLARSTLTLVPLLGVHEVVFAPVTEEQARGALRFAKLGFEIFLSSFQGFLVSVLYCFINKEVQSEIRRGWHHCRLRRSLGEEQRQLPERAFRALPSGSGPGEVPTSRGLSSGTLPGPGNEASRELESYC

[13] = biological target: T4, Gastric inhibitory polypeptide receptor (Homo sapiens) (UniProt P48546); assay: Agonist activity at human GIPR receptor expressed in HEK293 cells assessed as cAMP level by measuring relative percent (GIP EC50/compound EC50) measured after 60 mins by HTRF based assay relative to GIP; format: functional, cell-based
T4 sequence (whole entry): T3 sequence (P48546 whole entry)

Glucagon receptor [14] = biological target: T2, Glucagon receptor; assay: Agonist activity at human GCGR expressed in HEK293 cells assessed as cAMP level by measuring relative percent (glucagon EC50/compound EC50) measured after 60 mins by HTRF based assay relative to glucagon; format: functional, cell-based

Compound | Activity (Mus musculus [1]) | EC50 [2] [nM] | Activity (Mus musculus [3]) | Activity (Mus musculus [4]) | Activity (Mus musculus [5]) | Activity (Mus musculus [6]) [%] | Activity (Mus musculus [7]) | Activity (Mus musculus [8]) | Activity (Mus musculus [9]) | EC50 (Glucagon receptor [10]) [nM] | Activity [11] [%] | EC50 [12] [nM] | Activity [13] [%] | Activity (Glucagon receptor [14]) [%]
CCCCCCCCCCCCCCCC(=O)N[C@@H](CCC(=O)NCCCC[C@H](NC(=O)[C@H](C)NC(=O)[C@H](C)NC(=O)[C@H](CCC(=O)O)NC(=O)[C@H](CCC(=O)O)NC(=O)[C@H](CCC(=O)O)NC(=O)[C@H](CC(C)C)NC(=O)[C@H](Cc1ccc(O)cc1)NC(=O)[C@H](CO)NC(=O)[C@H](CO)NC(=O)[C@H](CCSC)NC(=O)[C@H](CC(=O)O)NC(=O)[C@H](CO)NC(=O)[C@@H](NC(=O)[C@H](Cc1ccccc1)NC(=O)[C@@H](NC(=O)CNC(=O)[C@H](CC(=O)O)NC(=O)C(C)(C)NC(=O)[C@@H](N)Cc1c[nH]cn1)[C@@H](C)O)[C@@H](C)O)C(=O)N[C@@H](CCC(=O)O)C(=O)N[C@@H](Cc1ccccc1)C(=O)N[C@H](C(=O)N[C@@H](CC(=O)O)C(=O)N[C@@H](Cc1c[nH]c2ccccc12)C(=O)N[C@@H](CC(C)C)C(=O)N[C@H](C(=O)N[C@@H](CCCCN)C(=O)NCC(=O)N[C@@H](CCCNC(=N)N)C(=O)N1CCC[C@H]1C(=O)N[C@@H](C)C(N)=O)[C@@H](C)CC)C(C)C)C(=O)O (H-H[Aib]DGTFTSDMSSYLEEEAAK([γGlu-Palmitoyl])EFVDWLIKGRPA-NH2) | inactive | 0.021 | – | – | – | – | – | – | – | – | – | – | – | –
SEMAGLUTIDE | – | – | Active | Active | Active | 18.6 | Active | Active | inactive | – | – | – | – | –
CC[C@H](C)[C@H](NC(=O)[C@H](CCCCNC(=O)COCCOCCNC(=O)COCCOCCNC(=O)CC[C@H](NC(=O)CCCCCCCCCCCCCCCCCCC(=O)O)C(=O)O)NC(=O)[C@H](CCC(=O)O)NC(=O)[C@H](CC(C)C)NC(=O)[C@H](C)NC(=O)[C@H](CCCNC(=N)N)NC(=O)[C@H](CO)NC(=O)[C@H](CCSC)NC(=O)[C@H](CC(=O)O)NC(=O)[C@H](CO)NC(=O)[C@@H](NC(=O)[C@H](Cc1ccccc1)NC(=O)[C@@H](NC(=O)CNC(=O)[C@H](CCC(N)=O)NC(=O)C(C)(C)NC(=O)[C@@H](N)Cc1c[nH]cn1)[C@@H](C)O)[C@@H](C)O)C(=O)N[C@@H](C)C(=O)N[C@@H](C)C(=O)N[C@@H](CCCNC(=N)N)C(=O)N[C@@H](CC(C)C)C(=O)N[C@@H](Cc1ccccc1)C(=O)N[C@H](C(=O)N[C@@H](CC(=O)O)C(=O)N[C@@H](Cc1c[nH]c2ccccc12)C(=O)N[C@@H](CC(C)C)C(=O)N[C@H](C(=O)N[C@@H](CCC(=O)O)C(=O)NCC(=O)NCC(=O)N1CCC[C@H]1C(=O)N[C@@H](CO)C(=O)N[C@@H](CO)C(=O)NCC(=O)N[C@@H](C)C(=O)N1CCC[C@H]1C(=O)N1CCC[C@H]1C(=O)N1CCC[C@H]1C(=O)N[C@@H](CO)C(N)=O)[C@@H](C)CC)C(C)C (H-H[Aib]QGTFTSDMSRALEK([AEEA-AEEA-γGlu-C20 diacid])IAARLFVDWLIEGGPSSGAPPPS-NH2) | – | 0.018 | – | – | – | – | – | – | – | 0.53 | 294 | 0.96 | 3 | 17
CC[C@H](C)[C@H](NC(=O)[C@H](CCCCNC(=O)COCCOCCNC(=O)COCCOCCNC(=O)CC[C@H](NC(=O)CCCCCCCCCCCCCCCCC(=O)O)C(=O)O)NC(=O)[C@H](CCC(=O)O)NC(=O)[C@H](CC(C)C)NC(=O)[C@H](C)NC(=O)[C@H](CCCNC(=N)N)NC(=O)[C@H](CO)NC(=O)[C@H](CC(C)C)NC(=O)[C@H](CC(=O)O)NC(=O)[C@H](CO)NC(=O)[C@@H](NC(=O)[C@H](Cc1ccccc1)NC(=O)[C@@H](NC(=O)CNC(=O)[C@H](CCC(N)=O)NC(=O)C(C)(C)NC(=O)[C@@H](N)Cc1c[nH]cn1)[C@@H](C)O)[C@@H](C)O)C(=O)N[C@@H](C)C(=O)N[C@@H](C)C(=O)N[C@@H](CCCNC(=N)N)C(=O)N[C@@H](CC(C)C)C(=O)N[C@@H](Cc1ccccc1)C(=O)N[C@H](C(=O)N[C@@H](CCC(=O)O)C(=O)N[C@@H](Cc1c[nH]c2ccccc12)C(=O)N[C@@H](CC(C)C)C(=O)N[C@H](C(=O)N[C@@H](CCC(=O)O)C(=O)NCC(=O)NCC(=O)N1CCC[C@H]1C(=O)N[C@@H](CO)C(=O)N[C@@H](CO)C(=O)NCC(=O)N[C@@H](C)C(=O)N1CCC[C@H]1C(=O)N1CCC[C@H]1C(=O)N1CCC[C@H]1C(=O)N[C@@H](CO)C(N)=O)[C@@H](C)CC)[C@@H](C)CC (H-H[Aib]QGTFTSDLSRALEK([AEEA-AEEA-γGlu-C18 diacid])IAARLFIEWLIEGGPSSGAPPPS-NH2) | – | 0.022 | – | – | – | – | – | – | – | 1.8 | 241 | 0.97 | 3 | 5
CC[C@H](C)[C@H](NC(=O)[C@H](CCCCNC(=O)COCCOCCNC(=O)COCCOCCNC(=O)CC[C@H](NC(=O)CCCCCCCCCCCCCCCCCCC(=O)O)C(=O)O)NC(=O)[C@H](CCC(=O)O)NC(=O)[C@H](CCSC)NC(=O)[C@H](C)NC(=O)[C@H](CCCNC(=N)N)NC(=O)[C@H](CO)NC(=O)[C@H](CCSC)NC(=O)[C@H](CC(=O)O)NC(=O)[C@H](CO)NC(=O)[C@@H](NC(=O)[C@H](Cc1ccccc1)NC(=O)[C@@H](NC(=O)CNC(=O)[C@H](CCC(N)=O)NC(=O)C(C)(C)NC(=O)[C@@H](N)Cc1c[nH]cn1)[C@@H](C)O)[C@@H](C)O)C(=O)N[C@@H](C)C(=O)N[C@H](C(=O)N[C@@H](CCCNC(=N)N)C(=O)N[C@@H](CC(C)C)C(=O)N[C@@H](Cc1ccccc1)C(=O)N[C@H](C(=O)N[C@@H](CC(=O)O)C(=O)N[C@@H](Cc1c[nH]c2ccccc12)C(=O)N[C@@H](CC(C)C)C(=O)N[C@H](C(=O)N[C@@H](CCC(=O)O)C(=O)NCC(=O)NCC(=O)N1CCC[C@H]1C(=O)N[C@@H](CO)C(=O)N[C@@H](CO)C(=O)NCC(=O)N[C@@H](C)C(=O)N1CCC[C@H]1C(=O)N1CCC[C@H]1C(=O)N1CCC[C@H]1C(=O)N[C@@H](CO)C(N)=O)[C@@H](C)CC)C(C)C)C(C)C (H-H[Aib]QGTFTSDMSRAMEK([AEEA-AEEA-γGlu-C20 diacid])IAVRLFVDWLIEGGPSSGAPPPS-NH2) | – | 0.02 | – | – | – | – | – | – | – | 0.8 | 265 | 0.89 | 3 | 12
CC[C@H](C)[C@H](NC(=O)[C@H](CCCCNC(=O)COCCOCCNC(=O)COCCOCCNC(=O)CC[C@H](NC(=O)CCCCCCCCCCCCCCCCC(=O)O)C(=O)O)NC(=O)[C@H](CCC(=O)O)NC(=O)[C@H](CCSC)NC(=O)[C@H](C)NC(=O)[C@H](CCCNC(=N)N)NC(=O)[C@H](CO)NC(=O)[C@H](CCSC)NC(=O)[C@H](CC(=O)O)NC(=O)[C@H](CO)NC(=O)[C@@H](NC(=O)[C@H](Cc1ccccc1)NC(=O)[C@@H](NC(=O)CNC(=O)[C@H](CCC(N)=O)NC(=O)C(C)(C)NC(=O)[C@@H](N)Cc1c[nH]cn1)[C@@H](C)O)[C@@H](C)O)C(=O)N[C@@H](C)C(=O)N[C@H](C(=O)N[C@@H](CCCNC(=N)N)C(=O)N[C@@H](CC(C)C)C(=O)N[C@@H](Cc1ccccc1)C(=O)N[C@H](C(=O)N[C@@H](CC(=O)O)C(=O)N[C@@H](Cc1c[nH]c2ccccc12)C(=O)N[C@@H](CC(C)C)C(=O)N[C@H](C(=O)N[C@@H](CCC(=O)O)C(=O)NCC(=O)NCC(=O)N1CCC[C@H]1C(=O)N[C@@H](CO)C(=O)N[C@@H](CO)C(=O)NCC(=O)N[C@@H](C)C(=O)N1CCC[C@H]1C(=O)N1CCC[C@H]1C(=O)N1CCC[C@H]1C(=O)N[C@@H](CO)C(N)=O)[C@@H](C)CC)C(C)C)C(C)C (H-H[Aib]QGTFTSDMSRAMEK([AEEA-AEEA-γGlu-C18 diacid])IAVRLFVDWLIEGGPSSGAPPPS-NH2) | – | 0.019 | – | – | – | – | – | – | – | 0.61 | 279 | 0.83 | 3 | 15
